According to ChEMBL document CHEMBL1141061, “Structural elucidation of A-74528, an inhibitor for 2',5'-phosphodiesterase isolated from Streptomyces sp” (Bioorg Med Chem Lett, 2005):
In brackets after ≈: the same amount, converted by molar mass.

Experiment: Inhibitory concentration against human 2'-phosphodiesterase

C[C@@H]1c2c(O)cc(O)c3c2[C@H]2[C@H](CC(=O)C4=C(O)c5c(O)cc(O)cc5[C@@H](C3=O)[C@]42Cc2cc(O)cc(=O)o2)[C@H]1O
IC50: 34 µg/mL (≈ 60.7 µM)
